Laboratory results published in patent US12121521B2, “Uses of salt-inducible kinase (SIK) inhibitors for treating osteoporosis” (The General Hospital Corporation, priority 2016, dated 2024).

Experiments:
[1] = system: M-CSF+RANKL-primed osteoclastogenesis; experiment: Osteoclast differentiation of bone marrow-derived macrophages (TRAP); type: cell-based, murine; conditions: in vitro; read-out: IC50 of inhibition of M-CSF+RANKL-primed osteoclastogenesis
Description: Static and dynamic histomorphometry was performed (see FIG. 24). […] Effects on osteoclast differentiation were assessed by TRAP secretion assays and counting multi-nucleated TRAP-positive cells (see FIG. 26). M-CSF signaling in primary macrophages, was assessed by immunoblotting for MCSF-receptor Y723 phosphorylation and ERK1/2 phosphorylation (see FIG. 27).

Ocy454 cells [2] = experiment: Gene expression in Ocy454 cells by RT-qPCR; type: cell-based, mouse; conditions: 1 μM, 4 hours; control vs shSIK2/3 cells; FIG. 8B
Ocy454 cells [3] = experiment: Immunoblotting of Ocy454 cell lysates (HDAC4/5, CRTC2, SIK2 phosphorylation and localisation); type: cell-based, mouse; conditions: indicated doses, 20 minutes; FIG. 8A

COc1ccc(N2C(=O)N(c3c(C)cccc3Cl)Cc3cnc(Nc4ccc(C5CCN(C)CC5)cc4OC)nc32)nc1 [YKL-05-099]
IC50 [1]: 52 nM | RANKL expression (Ocy454 cells [2]): RANKL up-regulation in a SIK2/3-dependent manner | SOST expression (Ocy454 cells [2]): SOST down-regulation | HDAC4 S246 phosphorylation (Ocy454 cells [3]): dose-dependent reduction in HDAC4 S246 phosphorylation
